# In US20080269202A1, “Novel 2,3-benzodiazepine derivatives and their use as antipsychotic agents” (Teva Pharmaceutical Industries Ltd., priority 2007, published 2008):
# Read-outs that look alike come from different tables or passages of the source.
# Key:
# [1] = system: apomorphine-induced stereotyped behavior; assay: apomorphine-induced stereotypy; format: in vivo, CD1 mice; details: Mus musculus, read-out: Stereotypy ED50 (mg/kg po.)
# Text: Anti-apomorphine effects were investigated in the climbing test in mice mediated through the mesolimbic and stereotypy test in rats mediated through the nigrostriatal system. Conventional antipsychotics antagonize both apomorphine-induced behaviours, while known atypical antipsychotics are weaker against apomorphine stereotypy.
# Apomorphine-induced stereotypy was investigated according to Costall and Naylor (B. Costall and R. J. Naylor, Eur. J. Pharmacol. 1972, 18, 95) in male CD1 mice of 20-25 g body weight after 16 hours deprivation of food. 30 min before treatment mice were individually placed into small, transparent acrylic cages for habituation. Test substances were administered orally in a volume of 0.1 ml/10 g. 30 min later mice were treated with apomorphine HCl (SIGMA) in a subcutaneous dose of 2 mg/kg. […] The scores were summed individually, meaned and compared to the control group. The ED50 values were calculated by Litchfield-Wilcoxon's method (J. Pharmacol. Exp. Ther. 1949, 96, 49,).
# [2] = system: PCP-induced hypermotility; assay: PCP-induced hypermotility (motor activity meter) in mice; format: in vivo; details: Mus musculus, read-out: PCP-hypermotility ED50 mg/kg po.
# Text: (§1) Alterations in the mesocortical dopaminergic tract are thought to be responsible for the negative symptoms of schizophrenia (flattening of affect, poverty of speech, lack of volition and drive, loss of feeling, social withdrawal and decreased spontaneous movement). The best animal model of these symptoms is the behavioral changes induced by PCP (phencyclidine). The PCP-induced stereotypy and hypermotility was investigated in mice according to Ljungberg and Ungerstedt (Ljungberg, T., Ungerstedt, U. Pharmacol. Biochem. Behav., 1985, 23, 479,) and Jawitt (Jawitt, D. C. Amer. J. Psychiatry, 1991, 145, 1301). The stereotypy experiments were carried out in male CD1 mice weighing 20-25 g. The animals were starved for 16 hours before treatment without limitation of water availability. In the stereotypy studies, 30 min before treatment, mice were individually placed into small, transparent acrylic cages for habituation. Test substances were administered orally in a volume of 0.1 ml/10 g. 30 min later mice were treated with PCP with an intraperitoneal dose of 7 mg/kg. Stereotyped behavior was observed every 5th min for 60 min and scored from 0 to 4. The scores were summed individually, averaged and compared to the control group.
# The motor activity was measured in a 4-channel activity meter. The apparatus consisted of acrylic cages (40×40×32 cm) equipped with 16 pairs of infrared photocells. The photocells' beam, when broken, signaled a count, which was then recorded by a computer. A 5 mg/kg intraperitoneal dose of PCP was administered 5 min before the experiment. This dose of PCP induces 110-120% increase of the spontaneous motor activity. Test substances were administered orally 15 min before experiment, and mice were investigated individually in the experimental cages for 60 min. 10 mice/group were used. The total counts for each experimental group were compared to the vehicle treated control group.
# (§2) In both studies the ED50 values were calculated by the Litchfield-Wilcoxon's method (J. Pharmacol. Exp. Ther. 1949, 96, 49).
# [3] = biological target: central dopaminergic receptors (Homo sapiens, UniProt P21728); assay: in vitro binding profile to central dopaminergic receptors (Table 3); details: human recombinant CHO cells, ligand [3H]SCH-23390; read-out: D1 binding
# central dopaminergic receptors, sequence (P21728 whole entry): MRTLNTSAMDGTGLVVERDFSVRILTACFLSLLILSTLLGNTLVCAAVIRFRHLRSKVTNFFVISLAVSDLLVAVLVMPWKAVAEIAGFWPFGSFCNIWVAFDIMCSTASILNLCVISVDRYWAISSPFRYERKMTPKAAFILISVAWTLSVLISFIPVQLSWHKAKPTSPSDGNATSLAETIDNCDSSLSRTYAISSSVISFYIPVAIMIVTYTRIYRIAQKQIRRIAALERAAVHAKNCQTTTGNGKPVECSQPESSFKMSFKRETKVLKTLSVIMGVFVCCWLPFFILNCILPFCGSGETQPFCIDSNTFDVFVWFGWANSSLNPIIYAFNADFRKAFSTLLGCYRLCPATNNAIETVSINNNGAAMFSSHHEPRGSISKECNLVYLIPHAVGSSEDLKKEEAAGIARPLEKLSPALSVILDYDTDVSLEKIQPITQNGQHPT
# Text: (§3) The new 2,3-benzodiazepine atypical antipsychotic agents of formula (I) of the present invention influence dopaminergic neurotransmission by a unique indirect fashion, differently from both the first and second generation antipsychotics. The in vitro binding profile of these compounds (Table 3) differs from that of the first generation antipsychotics which bind to dopaminergic receptors and second generation antipsychotics, representatives of which show affinity for dopaminergic, serotonergic, or adrenergic receptors.
# Melatonin (MT2) receptor = biological target: T1, Melatonin (MT2) receptor (Homo sapiens, UniProt P49286); assay: in vitro inhibition, melatonin (MT2) receptor; format: binding; details: conc: 10 μM
# T1 sequence (P49286 1-362): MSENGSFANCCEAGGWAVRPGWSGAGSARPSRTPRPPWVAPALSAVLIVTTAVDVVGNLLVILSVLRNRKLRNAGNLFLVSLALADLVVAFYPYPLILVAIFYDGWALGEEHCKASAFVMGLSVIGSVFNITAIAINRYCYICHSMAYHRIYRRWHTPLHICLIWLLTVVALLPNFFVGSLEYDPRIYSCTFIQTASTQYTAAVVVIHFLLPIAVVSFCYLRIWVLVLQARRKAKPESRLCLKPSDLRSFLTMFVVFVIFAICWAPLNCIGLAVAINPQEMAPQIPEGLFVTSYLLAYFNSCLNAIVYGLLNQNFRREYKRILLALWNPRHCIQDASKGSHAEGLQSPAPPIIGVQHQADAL
# adrenergic receptors [4] = biological target: T2, adrenergic receptors; assay: in vitro binding profile to adrenergic receptors (Table 3); details: rat cerebral cortical membranes, ligand [3H]yohimbine; read-out: α2 binding
# T2 construct: other: rat cerebral cortical membranes, ligand [3H]yohimbine
# Text: as §3
# adrenergic receptors [5] = biological target: T3, adrenergic receptors; assay: as above; details: rat cerebral cortical membranes, ligand [3H]prazosin; read-out: α1 binding
# T3 construct: other: rat cerebral cortical membranes, ligand [3H]prazosin
# Text: as §3
# PCP-induced stereotypy = PCP-induced stereotypy in mice; format: in vivo, CD1 mice; details: Mus musculus, read-out: PCP-stereotypy ED50 mg/kg po.
# Text: as §1, §2
# Adenosine transporter = assay: in vitro inhibition, adenosine transporter; format: binding; details: conc: 10 μM
# [6] = system: PCP-induced disruption of PPI; assay: PCP-induced disruption of pre-pulse inhibition (PPI)
# Text: Male C57B1/6J mice from Jackson Laboratories (Bar Harbor, Me.) were used in this study. Mice were received at 6-weeks of age. Upon receipt, mice were assigned unique identification numbers (tail marked) and were group housed in OPTImice cages. All animals remained housed in groups of four during the remainder of the study. […] During the period of acclimation, mice were examined on a regular basis, handled, and weighed to assure adequate health and suitability. Mice were maintained on a 12/12 light/dark cycle with the light on at 6:00 a.m. The room temperature was maintained between 20 and 23° C. with a relative humidity maintained between 30% and 70%. Food and water were provided ad libitum for the duration of the study. In each test, animals were randomly assigned across treatment groups.
# All compounds were injected i.p. at a dose volume of 10 ml/kg. […] Phenylcyclohexylpiperidine (PCP) (8 mg/kg) was dissolved in sterile water.
# The acoustic startle measured an unconditioned reflex response to external auditory stimulation. […] Mice were placed in the PPI chambers (Med Associates) for a 5 min session of white noise (70 dB) habituation.
# After the acclimation period the test session was automatically started. The session started with a habituation block of 6 presentations of the startle stimulus alone, followed by 10 PPI blocks of 6 different types of trials. Trial types are: null (no stimuli), startle (120 dB), startle plus prepulse (4, 8 and 12 dB over background noise i.e. 74, 78 or 82 dB) and prepulse alone (82 dB). Trial types were presented at random within each block.
# Each trial started with a 50 ms null period during which baseline movements were recorded. There was a subsequent 20 ms period during which prepulse stimuli were presented and responses to the prepulse measured. After further 100 ms the startle stimuli were presented for 40 ms and responses recorded for 100 ms from startle onset. Responses were sampled every ms. The inter-trial interval was variable with an average of 15 s (range from 10 to 20 s). In startle alone trials the basic auditory startle was measured and in prepulse plus startle trials the amount of inhibition of the normal startle was determined and expressed as a percentage of the basic startle response (from startle alone trials), excluding the startle response of the first habituation block.
# Data were analyzed by analysis of variance (ANOVA) followed by post-hoc comparisons with Fisher Tests when appropriate. An effect was considered significant if p<0.05. Data are represented as the mean and standard error to the mean.
# [7] = mice, po. 30 min before apomorphine 2 mg/kg s.c.
# [8] = mice, po. 15 min before experiment, PCP 5 mg/kg ip
# [9] = mice, po. 30 min before PCP 7 mg/kg ip
SMILES,"ED50 [1, 7]","ED50 [2, 8]",Ki [3],inhibition at 10 µM (Melatonin (MT2) receptor),Ki (adrenergic receptors [4]),Ki (adrenergic receptors [5]),ED50 (PCP-induced stereotypy; [9]),"Inhibition in %, Adenosine transporter (Adenosine transporter)",melting point,ED50 [1],ED50 [2],sedation and lethargy in the mice ([6]; 5 mg/kg i.p. (high dose)),"reversal of PCP-induced disruption of PPI ([6]; 2.5 and 5 mg/kg i.p., PCP 8 mg/kg, C57B1/6J mice)",ED50 (PCP-induced stereotypy)
COc1cc2c(cc1OC)C(c1ccc(N)c(C)c1)=NN(c1ncon1)[C@H](C)C2 [Example 104],6.97 mg/kg,0.73 mg/kg,> 10 µM,80%,> 10 µM,> 10 µM,1.12 mg/kg,96%,,,,,,
COc1cc2c(cc1OC)C(c1ccc(N)c(C)c1)=NN(c1nncs1)[C@H](C)C2 [Example 110],3.5 mg/kg,1.4 mg/kg,> 10 µM,95%,> 10 µM,> 10 µM,2.38 mg/kg,94%,143 °C,,,,,
CNC(=O)N1N=C(c2ccc(N)cc2)c2cc(OC)c(OC)cc2C[C@H]1C [Example 121],,,> 10 µM,80%,> 10 µM,> 10 µM,,87%,140 to 144 °C,3.54 mg/kg,0.87 mg/kg,caused sedation and lethargy,significantly reversed,1.56 mg/kg
CNC(=O)N1N=C(c2ccc(N)c(C)c2)c2cc(OC)c(OC)cc2C[C@H]1C [Example 123],,,> 10 µM,64%,> 10 µM,> 10 µM,,90%,147 °C,7.52 mg/kg,0.62 mg/kg,,,1.07 mg/kg
